Experimental data as given in US9708314B2, “Heterocyclic amide compound” (NISSAN CHEMICAL INDUSTRIES, LTD., priority 2013, dated 2017).

Key:
Assay type in all cases: in vivo
[1] = tested on: Scirpus juncoides; experiment: Test Example 1: herbicidal activity, application before weed generation in submerged conditions; conditions: Application herbicide amount 320 g/ha; Seventeenth Table
Excerpt: (§1) [Test Example 1] Herbicidal Activity Test by Application Before Weed Generation in Submerged Conditions After alluvial soil was placed into 1/10000 are of Wagner pot, water was poured and mixed to form a submerged condition having a water depth of 4 cm. Seeds of Echinochloa oryzacola Vasing., Scirpus juncoides, and Monochoria vaginalis were sowed in a mixed manner in the above pot and thereafter 2.5 leaf stage Oryza sativa seedling was transplanted. On the day of sowing seeds, the emulsion agent containing the compound of the present invention prepared in accordance with Formulation Example 2 was diluted with water so as to be a predetermined herbicide amount and the diluted compound was applied to the surface of the water. The pot was placed in a greenhouse of 25° C. to 30° C. to grow plant. Three weeks after the herbicide application, effects on each plant were investigated in accordance with the following criteria. Criteria 5 Herbicidal ratio of 90% or more (almost completely withered) 4 Herbicidal ratio of 70% or more and less than 90% 3 Herbicidal ratio of 40% or more and less than 70% 2 Herbicidal ratio of 20% or more and less than 40% 1 Herbicidal ratio of 5% or more and less than 20% 0 Herbicidal ratio of 5% or less (almost no effect) A: Echinochloa oryzicola Vasing., B: Scirpus juncoides, C: Monochoria vaginalis, D: Leptochloa chinensis, E: Cyperus difformis, F: Digitaria ciliaris, G: Setaria viridis, H: Echinochloa crus-galli var. crus-galli, I: Avena fatua, J: Alopecurus myosuroides, K: Lolium multiflorum Lam., L: Apera spica-venti., M: Abutilon theophrasti, N: Amaranthus retroflexus, O: Chenopodium album, P: Stellaria media, Q: Galium spurium, R: Veronica persica, a: transplanted Oryza sativa, b: directly sowed Oryza sativa, c: Zea mays, d: Glycine max, e: Triticum aestivum, f: Beta vulgaris ssp. vulgaris, and g: Brassica campestris L. The application herbicide amount (g/ha) means an amount that a concentration is adjusted so that, when an application amount is converted into per hectare (1 ha), the herbicide is applied by the number of grams (g) of the described value.

[2] = tested on: Echinochloa oryzacola Vasing.; experiment: as above; conditions: Application herbicide amount 320 g/ha; Seventeenth Table
Excerpt: as §1

[3] = tested on: Monochoria vaginalis; experiment: as above; conditions: Application herbicide amount 320 g/ha; Seventeenth Table
Excerpt: as §1

[4] = tested on: Cyperus difformis; experiment: Test Example 3: herbicidal effect by application to foliage (Wagner pot, water depth 0.1-0.5 cm); conditions: Nineteenth Table
Outline: (§2)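 Seeds were sown in alluvial soil in Wagner pots, grown for 14 days at 25–30 °C, then sprayed uniformly on foliage with the emulsified compound diluted to a given rate per hectare. Injury was graded three weeks after treatment from 0 (≤5%) to 5 (≥90%).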

[5] = tested on: Echinochloa crus-galli var. crus-galli; experiment: as above; conditions: Nineteenth Table
Outline: as §2

[6] = tested on: Leptochloa chinensis; experiment: as above; conditions: Nineteenth Table
Outline: as §2

[7] = tested on: directly sowed Oryza sativa; experiment: Test Example 3: effect on crop by application to foliage (Wagner pot, water depth 0.1-0.5 cm); conditions: Nineteenth Table
Outline: as §2

[8] = tested on: Digitaria ciliaris; experiment: Test Example 4: herbicidal effect by application to foliage (diluvial soil, plastic box); conditions: application to foliage, application herbicide amount 320 g/ha
Outline: (§3)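 Emulsion-formulated compound, diluted to a predetermined g/ha dose, applied by small sprayer to leaves and stems of 14-day-old seedlings grown in sterilized diluvial soil. Effect rated on 0–5 herbicidal-ratio scale three weeks on.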

[9] = tested on: Galium spurium; experiment: as above; conditions: application to foliage, application herbicide amount 320 g/ha
Outline: as §3

[10] = application herbicide amount 400 g/ha
[11] = application herbicide amount 320 g/ha

Compound | B: Scirpus juncoides (herbicidal effect grade) [1] | A: Echinochloa oryzicola Vasing. (herbicidal effect grade) [2] | C: Monochoria vaginalis (herbicidal effect grade) [3] | E (Cyperus difformis) herbicidal ratio grade [4, 10] | H (Echinochloa crus-galli var. crus-galli) herbicidal ratio grade [5, 10] | D (Leptochloa chinensis) herbicidal ratio grade [6, 10] | b (directly sowed Oryza sativa) effect on crop grade [7, 10] | F (Digitaria ciliaris) herbicidal effect [8] | Q (Galium spurium) herbicidal effect [9] | E (Cyperus difformis) herbicidal ratio grade [4, 11] | H (Echinochloa crus-galli var. crus-galli) herbicidal ratio grade [5, 11] | D (Leptochloa chinensis) herbicidal ratio grade [6, 11] | b (directly sowed Oryza sativa) effect on crop grade [7, 11]
CCc1nnc(NC(=O)c2ccc(C(F)(F)F)n3c(C(C)C)nnc23)o1 [1-005] | 4 (Herbicidal ratio of 70% or more and less than 90%) | 5 (Herbicidal ratio of 90% or more (almost completely withered)) | 4 (Herbicidal ratio of 70% or more and less than 90%) | 5 (Herbicidal ratio of 90% or more (almost completely withered)) | 2 (Herbicidal ratio of 20% or more and less than 40%) | 5 (Herbicidal ratio of 90% or more (almost completely withered)) | 0 (Herbicidal ratio of 5% or less (almost no effect)) | 3 (Herbicidal ratio of 40% or more and less than 70%) | 0 (Herbicidal ratio of 5% or less (almost no effect)) |  |  |  | 
CCC(CC)c1nnc2c(C(=O)Nc3nnc(C)o3)ccc(C(F)(F)F)n12 [1-011] | 4 (Herbicidal ratio of 70% or more and less than 90%) | 5 (Herbicidal ratio of 90% or more (almost completely withered)) | 5 (Herbicidal ratio of 90% or more (almost completely withered)) | 5 (Herbicidal ratio of 90% or more (almost completely withered)) | 5 (Herbicidal ratio of 90% or more (almost completely withered)) | 5 (Herbicidal ratio of 90% or more (almost completely withered)) | 0 (Herbicidal ratio of 5% or less (almost no effect)) | 5 (Herbicidal ratio of 90% or more (almost completely withered)) | 2 (Herbicidal ratio of 20% or more and less than 40%) |  |  |  | 
Cc1nnc(NC(=O)c2ccc(C(F)(F)F)n3c(Br)nnc23)o1 [1-014] | 4 (Herbicidal ratio of 70% or more and less than 90%) | 5 (Herbicidal ratio of 90% or more (almost completely withered)) | 3 (Herbicidal ratio of 40% or more and less than 70%) |  |  |  |  | 3 (Herbicidal ratio of 40% or more and less than 70%) | 3 (Herbicidal ratio of 40% or more and less than 70%) | 4 (Herbicidal ratio of 70% or more and less than 90%) | 5 (Herbicidal ratio of 90% or more (almost completely withered)) | 2 (Herbicidal ratio of 20% or more and less than 40%) | 1 (Herbicidal ratio of 5% or more and less than 20%)
COCc1nnc2c(C(=O)Nc3nnc(C)o3)ccc(C(F)(F)F)n12 [1-015] | 3 (Herbicidal ratio of 40% or more and less than 70%) | 2 (Herbicidal ratio of 20% or more and less than 40%) | 3 (Herbicidal ratio of 40% or more and less than 70%) |  |  |  |  | 4 (Herbicidal ratio of 70% or more and less than 90%) | 3 (Herbicidal ratio of 40% or more and less than 70%) | 4 (Herbicidal ratio of 70% or more and less than 90%) | 5 (Herbicidal ratio of 90% or more (almost completely withered)) | 5 (Herbicidal ratio of 90% or more (almost completely withered)) | 1 (Herbicidal ratio of 5% or more and less than 20%)
COc1ccc(-c2nnc3c(C(=O)Nc4nnc(C)o4)ccc(C(F)(F)F)n23)cc1 [1-016] | 0 (Herbicidal ratio of 5% or less (almost no effect)) | 4 (Herbicidal ratio of 70% or more and less than 90%) | 0 (Herbicidal ratio of 5% or less (almost no effect)) |  |  |  |  | 4 (Herbicidal ratio of 70% or more and less than 90%) | 2 (Herbicidal ratio of 20% or more and less than 40%) | 5 (Herbicidal ratio of 90% or more (almost completely withered)) | 5 (Herbicidal ratio of 90% or more (almost completely withered)) | 5 (Herbicidal ratio of 90% or more (almost completely withered)) | 1 (Herbicidal ratio of 5% or more and less than 20%)
Cc1nnc(NC(=O)c2ccc(C(F)(F)F)n3c(-c4ccc(Cl)cc4)nnc23)o1 [1-017] | 2 (Herbicidal ratio of 20% or more and less than 40%) | 3 (Herbicidal ratio of 40% or more and less than 70%) | 0 (Herbicidal ratio of 5% or less (almost no effect)) |  |  |  |  | 3 (Herbicidal ratio of 40% or more and less than 70%) | 0 (Herbicidal ratio of 5% or less (almost no effect)) | 4 (Herbicidal ratio of 70% or more and less than 90%) | 4 (Herbicidal ratio of 70% or more and less than 90%) | 3 (Herbicidal ratio of 40% or more and less than 70%) | 0 (Herbicidal ratio of 5% or less (almost no effect))
CSc1nnc2c(C(=O)Nc3nnc(C)o3)ccc(C(F)(F)F)n12 [1-018, N-(5-Methyl-1,3,4-oxadiazol-2-yl)-3-(methylthio)-5-(trifluoromethyl)-[1,2,4]triazol o[4,3-a]pyridine-8-carboxamide] | 3 (Herbicidal ratio of 40% or more and less than 70%) | 1 (Herbicidal ratio of 5% or more and less than 20%) | 5 (Herbicidal ratio of 90% or more (almost completely withered)) |  |  |  |  | 0 (Herbicidal ratio of 5% or less (almost no effect)) | 0 (Herbicidal ratio of 5% or less (almost no effect)) | 4 (Herbicidal ratio of 70% or more and less than 90%) | 4 (Herbicidal ratio of 70% or more and less than 90%) | 4 (Herbicidal ratio of 70% or more and less than 90%) | 2 (Herbicidal ratio of 20% or more and less than 40%)
COCCOCc1nnc2c(C(=O)Nc3nnc(C)o3)ccc(C(F)(F)F)n12 [1-019] | 3 (Herbicidal ratio of 40% or more and less than 70%) | 5 (Herbicidal ratio of 90% or more (almost completely withered)) | 4 (Herbicidal ratio of 70% or more and less than 90%) |  |  |  |  | 5 (Herbicidal ratio of 90% or more (almost completely withered)) | 4 (Herbicidal ratio of 70% or more and less than 90%) | 5 (Herbicidal ratio of 90% or more (almost completely withered)) | 5 (Herbicidal ratio of 90% or more (almost completely withered)) | 5 (Herbicidal ratio of 90% or more (almost completely withered)) | 4 (Herbicidal ratio of 70% or more and less than 90%)
